Assay results taken from paper PMC11054638, “Transport of Non-Steroidal Anti-Inflammatory Drugs across an Oral Mucosa Epithelium In Vitro Model” (Pharmaceutics, 2024).

What was measured:
[1] = Transport study across oral mucosa Transwell model, apical to basolateral, 240 min; details: human
Method: (§1) As soon as cells reached confluency, cultivation was switched from submerged to airlift and 1% Human Keratinocytes Growth Supplements (HKGS, Gibco, Thermofisher, Vienna, Austria, S0015) was added to the cultivation media on the basolateral compartment. Media were changed every 2–3 days until the day of experiment on day 29. Cells from passage 14–36 were used for experiments. Transepithelial electric resistance (TEER) was measured on day of experiment, as described in detail previously.
(§2) Solutions were diluted to 10 µM (carboxyfluorescein) or 100 µM in DMEM on day of experiments.
(§3) First, TEER was measured in cultivation media on the day of experiment. Afterwards, cells and blanks were washed twice with DMEM on the apical (300 µL) and basolateral (900 µL) compartments and selected cells and blanks were treated with DMEM with or without 100 µM probenecid or verapamil on the apical and basolateral side at 37 °C for 30 min. […] To cells which were pre-incubated with probenecid or verapamil, 100 µM probenecid or verapamil was applied apically as well. DMSO content was adapted for cells with no inhibitors, and DMSO and dd-H2O content was adjusted in the basolateral compartment as well in order to apply the same vehicle concentrations on the apical and basolateral compartment. […] Subsequently, duplicates of apical sample were collected, and samples were frozen at −80 °C until further analysis with High-Performance Liquid Chromatography (HPLC).
(§4) Peaks were quantified using the software Chromeleon Version 7.2.6, and corresponding mili absorbance unit × time [mAU × min] values were used for data analysis.
(§5) Mean values of relative fluorescence unit (RFU) or detected area [mAU × min] were used for calculation. For the first timepoint, the clearance [µL] for the detected area was calculated as shown in the formula below (1a), with Abasot1 as the measured area [mAU × min] at the first time point of the basolateral sample, Vbaso as the basolateral volume [µL] and Astock as the area measured for the applied stock solution. […] Clearance [µL] for carboxyfluorescein was calculated with the same formulas using RFU. (1a) Clearance=Abasot1×Vbaso/AStock (1b) Clearancetn=Abasotn×Vbaso/AStock−∑(Abasotn−1 ×3− Abasot1 ×3)
(§6) Cleared volume [µL] was calculated by plotting the sum of clearance at all time points over time [min]. The resulting slope PS [µL/min] was calculated inversely. For calculation of the PScell, the inverse PS blanks were subtracted, as shown below in Formula (2). (2) 1/PScell=1/PSall−1/PSblank
(§7) The final permeability coefficient is calculated by dividing the inverse PScell by the area of the ThinCerts (0.336 cm^2) and multiplying by a conversion factor to give the permeability coefficient as µm/min.

[2] = test system: oral mucosa epithelium in vitro model based on human cell line TR146; test: as above; details: for Permeability coefficient without inflammation and inhibitor: Table S3; for increase of permeability coefficient with probenecid compared to no inhibitor / increase of permeability coefficient with verapamil compared to no inhibitor / cumulated concentration of NSAID in the basolateral compartment: 100 µM; for cumulated concentration of NSAID in the basolateral compartment: 4 h
Method: as §1, §2, §3, §4, §5, §6, §7

MRP4 (ABCC4) = details: cited from earlier work
[3] = CXlogD at pH 7.4 ref https://ebi.ac.uk (02.04.2024); cited from earlier work
[4] = Transport study across blank inserts without cells; details: mean ± SD
Method: as §3, §5, §6

TR146 cell layers [5] = test: Carboxyfluorescein permeability assay (2 h) after 48 h inflammation treatment; type: in vitro ADME, human
Method: The resulting slope PS [µL/min] was calculated inversely. […] (2) 1/PScell=1/PSall−1/PSblank
ThinCerts® were seeded with cells as described above. Stock solutions of tumour necrosis factor α (TNF-α, Sigma-Alrich, H8916, 10 µg), Interleukin-1ß (IL-1ß, PeproTech, 200-01B, 2 µg) and Interferon-γ (IFN-γ, PeproTech, Vienna, Austria, 300-02, 20 µg) were prepared with Dulbecco’s Phosphate Buffered Saline (DPBS, Thermo-Fisher Scientific, Vienna, Austria, 14190094) containing 0.1% bovine serum albumin (BSA, Roth, Graz, Austria, 8076.2) at a concentration of 10 µg/mL and stored at −20 °C until usage. Three days before the experiments, cell layers and blanks were washed twice on the basolateral compartment with 900 µL cultivation media (DMEM supplemented with 10% Fetal Calf Serum and 1% Penicillin/Streptomycin) to remove anti-inflammatory hydrocortisone residues (a component of media supplement HKGS) and were further cultivated in cultivation media.
Prior to treating cells with prepared DMEM solutions, TEER was measured in cultivation media DMEM supplemented with 1% Penicillin/Streptomycin and 10% Fetal Calf Serum. Subsequently, cell layers and blanks were washed with DMEM (without supplements) twice on the apical and basolateral compartment, followed by TEER measurements in DMEM. Media of cells were replaced with previously prepared DMEM solutions. Control media was applied on the blanks. After 48 h treatment at 37 °C, 5% CO2 and 95% humidity TEER was measured. Subsequently, 10 µM carboxyfluorescein was added to the apical DMEM solutions and incubated in the incubator at 37 °C for 2 h. Media were immediately collected and measured for the RFU content using the EnSpire as described above. Afterwards, media were stored at −20 °C until further usage. Two cell-grown ThinCerts^TM of each treatment were pooled as one sample with 350 µL lysis buffer supplemented with 1% ß-mercaptoethanol and stored at −80 °C for RNA isolation.

TR146 cell layers [6] = details: human, not told, 4 h
ECV304 cell monolayers = details: cited from earlier work
[7] = Celexocib study, w/o Inhibitor, mean ± SD
[8] = with 100 µM verapamil, mean ± SEM
[9] = without inhibitor, 100 µM apical (CF 10 µM), mean ± SEM
[10] = Celexocib study, Probenecid, mean ± SD
[11] = Celexocib study, Verapamil, mean ± SD
[12] = Diclofenac study, Probenecid, mean ± SD
[13] = Diclofenac study, Verapamil, mean ± SD
[14] = Diclofenac study, w/o Inhibitor, mean ± SD
[15] = Ibuprofen study, Probenecid, mean ± SD
[16] = Ibuprofen study, Verapamil, mean ± SD
[17] = Ibuprofen study, w/o Inhibitor, mean ± SD
[18] = Piroxicam study, Probenecid, mean ± SD
[19] = Piroxicam study, Verapamil, mean ± SD
[20] = Piroxicam study, w/o Inhibitor, mean ± SD
[21] = with 100 µM probenecid, mean ± SEM

## Cc1ccc(-c2cc(C(F)(F)F)nn2-c2ccc(S(N)(=O)=O)cc2)cc1 [celecoxib]
[1]; PC (permeability of cell), Celexocib study, w/o Inhibitor, mean ± SD
  Papp A→B at 240 min: 0.733 ×10⁻⁶ cm/s
[1]; with probenecid 100 µM, PC (permeability of cell), Celexocib study, Probenecid, mean ± SD
  Papp A→B at 240 min: 10.1 ×10⁻⁶ cm/s
[1]; with probenecid 100 µM, PE (permeability of cell + blank), Celexocib study, Probenecid, mean ± SD
  Papp A→B at 240 min: 2.72 ×10⁻⁶ cm/s
[1]; with probenecid 100 µM, permeability coefficient, with 100 µM probenecid, mean ± SEM
  Papp A→B at 240 min, 100 µM: 21.2 ×10⁻⁶ cm/s
[1]; with verapamil 100 µM, PC (permeability of cell), Celexocib study, Verapamil, mean ± SD
  Papp A→B at 240 min: 3.5 ×10⁻⁶ cm/s
[2]; [7]
  PE (permeability of cell + blank): 0.36 ± 0.15 µm/min
[2]; mean ± SD
  Permeability coefficient without inflammation and inhibitor: 0.44 ± 0.19 µm/min
[2]; human, 240 min
  increase of permeability coefficient with probenecid compared to no inhibitor: 13.63 fold
  increase of permeability coefficient with verapamil compared to no inhibitor: 4.72 fold
[2]; human
  cumulated concentration of NSAID in the basolateral compartment: 0.0071 ± 0.00032 nmol/mm^2
[2]; [8]
  permeability coefficient: 2.10 ± 0.92 µm/min
[2]; [9]
  permeability coefficient: 0.44 ± 0.10 µm/min
MRP4 (ABCC4)
  inhibitory effect on MRP4 function: weaker in comparison to ibuprofen
[3]
  XlogD: 4.01

## CN1C(=O)CN=C(c2ccccc2)c2cc(Cl)ccc21 [diazepam]
[2]; [10]
  PS all (cell + blank): 0.14 ± 0.004 µL/min
  PS cell: 0.46 ± 0.04 µL/min
[2]; [11]
  PS all (cell + blank): 0.09 ± 0.05 µL/min
  PS cell: 0.41 ± 0.35 µL/min
[2]; [7]
  PS all (cell + blank): 0.11 ± 0.02 µL/min
  PS cell: 0.38 ± 0.19 µL/min
[2]; [12]
  PS all (cell + blank): 0.12 ± 0.01 µL/min
  PS cell: 0.57 ± 0.21 µL/min
[2]; [13]
  PS all (cell + blank): 0.1 ± 0.03 µL/min
  PS cell: 0.68 ± 0.69 µL/min
[2]; [14]
  PS all (cell + blank): 0.11 ± 0.03 µL/min
  PS cell: 0.44 ± 0.35 µL/min
[2]; [15]
  PS all (cell + blank): 0.09 ± 0.02 µL/min
  PS cell: 0.29 ± 0.16 µL/min
[2]; [16]
  PS all (cell + blank): 0.08 ± 0.02 µL/min
  PS cell: 0.39 ± 0.35 µL/min
[2]; [17]
  PS all (cell + blank): 0.12 ± 0.02 µL/min
  PS cell: 0.31 ± 0.08 µL/min
[2]; [18]
  PS all (cell + blank): 0.1 ± 0.01 µL/min
  PS cell: 0.32 ± 0.14 µL/min
[2]; [19]
  PS all (cell + blank): 0.05 ± 0.03 µL/min
  PS cell: 0.24 ± 0.36 µL/min
[2]; [20]
  PS all (cell + blank): 0.12 ± 0.04 µL/min
  PS cell: 0.45 ± 0.24 µL/min
[4]; Diclofenac study, Probenecid
  PS blank: 0.15 ± 0.03 µL/min
[4]; Diclofenac study, Verapamil
  PS blank: 0.13 ± 0.03 µL/min
[4]; Diclofenac study, w/o Inhibitor
  PS blank: 0.17 ± 0.01 µL/min
[4]; Ibuprofen study, Probenecid
  PS blank: 0.14 ± 0.01 µL/min
[4]; Ibuprofen study, Verapamil
  PS blank: 0.12 ± 0.06 µL/min
[4]; Ibuprofen study, w/o Inhibitor
  PS blank: 0.21 ± 0.03 µL/min
[4]; Piroxicam study, Probenecid
  PS blank: 0.12 ± 0.03 µL/min
[4]; Piroxicam study, Verapamil
  PS blank: 0.09 ± 0.02 µL/min
[4]; Piroxicam study, w/o Inhibitor
  PS blank: 0.19 ± 0.02 µL/min
[4]; study, Probenecid
  PS blank: 0.20 ± 0.004 µL/min
[4]; study, Verapamil
  PS blank: 0.13 ± 0.05 µL/min
[4]; study, w/o Inhibitor
  PS blank: 0.18 ± 0.003 µL/min

## O=C(O)Cc1ccccc1Nc1c(Cl)cccc1Cl [diclofenac]
[1]; PC (permeability of cell)
  Papp A→B at 240 min: 11.1 ×10⁻⁶ cm/s
[1]; PE (permeability of cell + blank)
  Papp A→B at 240 min: 3.43 ×10⁻⁶ cm/s
[2]; [14]
  PE (permeability of cell + blank): 2.11 ± 0.22 µm/min
[2]; mean ± SD
  Permeability coefficient without inflammation and inhibitor: 3.64 ± 0.84 µm/min
[2]; human, 240 min
  PE (permeability of cell + blank): 2.98 ± 1.37 µm/min
  increase of permeability coefficient with probenecid compared to no inhibitor: 1.83 fold
[2]; human
  cumulated concentration of NSAID in the basolateral compartment: 0.043 ± 0.0046 nmol/mm^2
[2]; [21]
  permeability coefficient: 6.66 ± 1.87 µm/min
[2]; [8]
  permeability coefficient: 3.54 ± 0.38 µm/min
[2]; [9]
  permeability coefficient: 3.64 ± 0.34 µm/min
[3]
  XlogD: 1.1

## CN1C(C(=O)Nc2ccccn2)=C(O)c2ccccc2S1(=O)=O [piroxicam]
[1]; PC (permeability of cell), Piroxicam study, w/o Inhibitor, mean ± SD
  Papp A→B at 240 min: 8.1 ×10⁻⁶ cm/s
[1]; with probenecid 100 µM, PC (permeability of cell), Piroxicam study, Probenecid, mean ± SD
  Papp A→B at 240 min: 9.68 ×10⁻⁶ cm/s
[1]; with probenecid 100 µM, PE (permeability of cell + blank), Piroxicam study, Probenecid, mean ± SD
  Papp A→B at 240 min: 4.52 ×10⁻⁶ cm/s
[1]; with verapamil 100 µM, PC (permeability of cell), Piroxicam study, Verapamil, mean ± SD
  Papp A→B at 240 min: 10 ×10⁻⁶ cm/s
[1]; with verapamil 100 µM, PE (permeability of cell + blank), Piroxicam study, Verapamil, mean ± SD
  Papp A→B at 240 min: 5.12 ×10⁻⁶ cm/s
[2]; [20]
  PE (permeability of cell + blank): 2.44 ± 0.76 µm/min
[2]; mean ± SD
  Permeability coefficient without inflammation and inhibitor: 4.86 ± 2.41 µm/min
[2]; human, 240 min
  increase of permeability coefficient with probenecid compared to no inhibitor: 1.19 fold
  increase of permeability coefficient with verapamil compared to no inhibitor: 1.23 fold
[2]; human
  cumulated concentration of NSAID in the basolateral compartment: 0.055 ± 0.016 nmol/mm^2
[2]; [21]
  permeability coefficient: 5.81 ± 0.61 µm/min
[2]; [8]
  permeability coefficient: 6.00 ± 0.70 µm/min
[2]; [9]
  permeability coefficient: 4.86 ± 0.84 µm/min
MRP4 (ABCC4)
  inhibitory effect on MRP4 function: weaker in comparison to ibuprofen

## carboxyfluorescein [CF]
[2]; human, 240 min
  permeability coefficient: 4.63 ± 0.24 µm/min
TR146 cell layers [5]; across cells treated with cytokines 48 h, two hours
  permeability coefficient for CF: 16.16 ± 13.05 µm/min
TR146 cell layers [5]; across cells treated with cytokines with ibuprofen 48 h, two hours
  permeability coefficient for CF: 16.75 ± 9.76 µm/min
TR146 cell layers [5]; across cells treated with ibuprofen 48 h, two hours
  permeability coefficient for CF: 12.83 ± 3.57 µm/min
TR146 cell layers [5]; across control cells, two hours after 48 h
  permeability coefficient for CF: 12.41 ± 5.15 µm/min
TR146 cell layers [6]
  permeability coefficient: 14.26 ± 7.14 µm/min
ECV304 cell monolayers
  permeability coefficient across ECV304 cell monolayers: ~ 5 µm/min
